Source: US11912693B2, “Compounds for modulating S1P1 activity and methods of using the same” (TREVENA, INC., priority 2017, dated 2024)

Assays:
[1] = target: T1, human sphingosine-1-phosphate receptor 1 (S1P1) (Homo sapiens (Human), UniProt P21453); assay: Inhibition of cAMP production (HTRF cAMP HiRange), S1P1 CHO-K1 cells; format: cell-based; details: for Emax: CHO-K1, efficacy (SPAN) normalized to fingolimod, read-out: hS1P1 cAMP SPAN
Method in brief: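 CHO-K1 cells stably co-expressing human S1P1 (C-terminal Prolink tag) and EA-β-arrestin2 were grown in AssayComplete Media 6 at 37° C. and 5% CO2, plated, and incubated overnight. Agonist-driven inhibition of intracellular cAMP was read by TR-FRET with the HTRF cAMP HiRange kit on a PheraStar reader. Potency is pEC50, and efficacy (SPAN) is normalized to fingolimod.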
Target sequence in this assay (P21453 whole entry, looked up): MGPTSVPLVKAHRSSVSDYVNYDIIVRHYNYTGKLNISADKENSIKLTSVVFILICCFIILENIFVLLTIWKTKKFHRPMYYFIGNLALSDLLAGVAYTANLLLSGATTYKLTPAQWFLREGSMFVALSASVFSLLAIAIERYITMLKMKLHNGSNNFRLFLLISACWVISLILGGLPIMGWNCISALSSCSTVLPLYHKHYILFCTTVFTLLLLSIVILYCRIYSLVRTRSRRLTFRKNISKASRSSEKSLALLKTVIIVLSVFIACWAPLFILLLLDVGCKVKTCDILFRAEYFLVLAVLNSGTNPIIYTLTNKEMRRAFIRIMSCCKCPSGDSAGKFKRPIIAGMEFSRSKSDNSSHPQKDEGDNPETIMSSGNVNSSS

[2] = target: T1, human sphingosine-1-phosphate receptor 1 (S1P1); assay: β-Arrestin2 recruitment assay (PathHunter), S1P1 CHO-K1 cells; format: cell-based; details: for Emax: CHO-K1, efficacy (SPAN) normalized to fingolimod, read-out: hS1P1 B-arrestin2 SPAN
Method in brief: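 Enzyme-fragment complementation read-out: agonist-driven β-arrestin2 binding to ProLink-tagged human S1P1 in stable CHO-K1 cells restores β-galactosidase, measured 1 h at room temperature after a 60 min 37° C. compound incubation. Potency as pEC50, efficacy relative to fingolimod (SPAN).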
Target sequence in this assay (P21453 whole entry, looked up): as above
Target sequence in this assay (P32121 whole entry partner, looked up): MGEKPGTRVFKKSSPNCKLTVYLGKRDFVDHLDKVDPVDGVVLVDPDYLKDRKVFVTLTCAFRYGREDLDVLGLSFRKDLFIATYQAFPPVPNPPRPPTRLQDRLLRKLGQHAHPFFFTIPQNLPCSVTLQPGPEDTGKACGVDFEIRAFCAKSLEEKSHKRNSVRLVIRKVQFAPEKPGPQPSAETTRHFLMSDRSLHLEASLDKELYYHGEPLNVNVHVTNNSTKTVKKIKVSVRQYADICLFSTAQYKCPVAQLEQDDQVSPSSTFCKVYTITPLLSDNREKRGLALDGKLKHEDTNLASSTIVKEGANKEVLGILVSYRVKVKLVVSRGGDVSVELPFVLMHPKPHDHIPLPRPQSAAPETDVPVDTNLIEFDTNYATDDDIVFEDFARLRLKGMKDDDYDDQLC

[3] = test system: paclitaxel induced peripheral neuropathy; assay: Reversal of allodynia induced by paclitaxel in mice (s.c. or p.o., von Frey frequency method); format: in vivo, c57bl/6 mice; details: Mus musculus; for inhibition in vivo at 1 mg/kg: sc, 0.5 h, 1 mg/kg s.c., tested 30 min after dosing, read-out: Screen @ 1 mg/kg sc (% MPE); for inhibition in vivo at 3 mg/kg: po, 1 h, 3 mg/kg p.o., tested 60 min after dosing, read-out: Screen @ 3 mg/kg po (% MPE)
Method in brief: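 Neuropathy was induced in mice by paclitaxel (6 mg/kg i.p., days 1, 3, 5, 7) or oxaliplatin (4 mg/kg i.p., days 1-5), with re-testing about 14 days later. Compounds were given s.c. (tested at 30 min) or p.o. (tested at 60 min; paclitaxel only). A 0.4 g von Frey filament was applied ten times per paw, and % non-response was converted to % MPE.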

[4] = target: human sphingosine-1-phosphate receptor 2 (S1P2) (Homo sapiens (Human), UniProt O95136); assay: Inositol monophosphate production (IP-one TB kit), S1P2 CHO-K1 cells; format: cell-based; details: for Emax: CHO-K1, efficacy normalized to CYM5520, read-out: hS1P2 IP-one SPAN; for hS1P2 IP-one pEC50: inositol monophosphate accumulation
Procedure: (§1) Stable clonal Chinese hamster ovary K1 (CHO-K1) cells co-expressing EA-β-arrestin2 and the human sphingosine-1-phosphate receptor 2 (NM_004230.3, S1P2), human sphingosine-1-phosphate receptor 3 (NM_005226, S1P3) and sphingosine-1-phosphate receptor 5 (NM_001166215.1, S1P5) with a C-terminal Prolink™ tag were purchased from DiscoverX corporation (S1P2: Cat #93-0256C2, S1P3: Cat #93-0217C2, S1P5: Cat #93-0583C2).
(§2) Cell lines were cultured in AssayComplete™ Media 6 (DiscoverX Corporation, Cat #: 920018GF2) at 37° C. and 5% CO2 in a humidified CO2 and temperature-controlled incubator. To begin assay plating, cells were washed with dulbecco's phosphate buffered saline (CellGro, Cat #: 21-031-CV) and lifted from the culturing flask by incubation (37° C., 5 min) with CellStripper (Cellgro, Cat #: 25-056-CI). […] Plated cells were incubated overnight at 37° C. and 5% CO2 in a humidified CO2 and temperature-controlled incubator.
S1P2 Agonist-promoted G-protein responses were determined by measuring changes in intracellular inositol monophosphate using the IP-one TB kit (CisBio, Cat #: 62IPAPEJ) based on time-resolved fluorescence resonance energy transfer (TR-FRET) technology. AssayComplete™ Cell Plating 2 Reagent was removed and replaced with 1× IP-one stimulation buffer (as per manufacturer's instructions) along with test or control compounds at the desired concentrations. Following a 60-minute incubation at 37° C. and 5% CO2 in a humidified CO2 and temperature-controlled incubator, the components of the IP-one TB kit were added as per the manufacturer's instructions. After an hour incubation at room temperature, plates were analyzed by a BMG PheraStar microplate reader.
(§3) The tables below include the efficacy of the compound as compared to a positive control, referred to as “SPAN”. These values are normalized to fingolimod, a known agonist of the sphingosine-1-phosphate 3 and 5 receptor or CYM5520, a known agonist of the sphingosine-1-phosphate 2 receptor. The tables also include potency values (pEC50) for modulating discrete receptor-mediated activities (inhibition of cAMP production or inositol monophosphate accumulation).

[5] = target: human sphingosine-1-phosphate receptor 3 (S1P3) (Homo sapiens (Human), UniProt Q99500); assay: Inhibition of cAMP production (HTRF), S1P3 CHO-K1 cells; format: cell-based; details: for Emax: CHO-K1, efficacy normalized to fingolimod, read-out: hS1P3 cAMP SPAN; for hS1P3 cAMP pEC50: inhibition of cAMP production
Procedure: as §1, §2
(§4) S1P3 and S1P5 Agonist-promoted G-protein responses were determined by measuring changes in intracellular cAMP using the HTRF® cAMP HiRange kit (CisBio, Cat #: 62AM6PEJ) based on time-resolved fluorescence resonance energy transfer (TR-FRET) technology. […] Following a 30-minute room temperature incubation the components of the cAMP HiRange kit were added as per the manufacturer's instructions. After an hour incubation at room temperature, plates were analyzed by a BMG PheraStar microplate reader.
as §3

[6] = target: sphingosine-1-phosphate receptor 5 (S1P5) (Homo sapiens (Human), UniProt Q9H228); assay: Inhibition of cAMP production (HTRF), S1P5 CHO-K1 cells; format: cell-based; details: for Emax: CHO-K1, efficacy normalized to fingolimod, read-out: hS1P5 cAMP SPAN; for hS1P5 cAMP pEC50: inhibition of cAMP production
Procedure: as §1, §2, §4, §3

[7] = inhibition of cAMP production, S1P1 CHO-K1 cells
[8] = β-arrestin2 recruitment, S1P1 CHO-K1 cells

Sequence of sphingosine-1-phosphate receptor 5 (S1P5) (Q9H228 whole entry): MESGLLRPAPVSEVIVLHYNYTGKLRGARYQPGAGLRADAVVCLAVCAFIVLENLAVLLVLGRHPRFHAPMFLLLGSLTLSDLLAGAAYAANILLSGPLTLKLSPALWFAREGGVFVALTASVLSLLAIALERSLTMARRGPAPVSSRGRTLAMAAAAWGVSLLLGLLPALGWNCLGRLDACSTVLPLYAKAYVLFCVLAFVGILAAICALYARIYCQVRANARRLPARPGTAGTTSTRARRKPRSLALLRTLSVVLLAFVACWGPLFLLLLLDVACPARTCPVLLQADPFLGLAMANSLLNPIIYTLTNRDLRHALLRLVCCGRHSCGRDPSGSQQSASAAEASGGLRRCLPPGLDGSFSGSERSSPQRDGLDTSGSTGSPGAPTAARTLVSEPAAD
Sequence of human sphingosine-1-phosphate receptor 3 (S1P3) (Q99500 whole entry): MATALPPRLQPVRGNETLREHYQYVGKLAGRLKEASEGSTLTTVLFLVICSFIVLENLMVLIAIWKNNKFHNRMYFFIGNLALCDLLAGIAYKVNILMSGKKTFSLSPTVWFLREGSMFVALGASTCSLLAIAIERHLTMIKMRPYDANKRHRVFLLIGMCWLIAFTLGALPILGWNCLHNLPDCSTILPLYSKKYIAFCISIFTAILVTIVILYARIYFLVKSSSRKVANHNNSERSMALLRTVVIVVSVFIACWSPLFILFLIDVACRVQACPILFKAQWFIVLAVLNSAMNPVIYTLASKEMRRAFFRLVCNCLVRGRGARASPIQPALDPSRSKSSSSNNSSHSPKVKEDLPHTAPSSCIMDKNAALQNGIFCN
Sequence of human sphingosine-1-phosphate receptor 2 (S1P2) (O95136 whole entry): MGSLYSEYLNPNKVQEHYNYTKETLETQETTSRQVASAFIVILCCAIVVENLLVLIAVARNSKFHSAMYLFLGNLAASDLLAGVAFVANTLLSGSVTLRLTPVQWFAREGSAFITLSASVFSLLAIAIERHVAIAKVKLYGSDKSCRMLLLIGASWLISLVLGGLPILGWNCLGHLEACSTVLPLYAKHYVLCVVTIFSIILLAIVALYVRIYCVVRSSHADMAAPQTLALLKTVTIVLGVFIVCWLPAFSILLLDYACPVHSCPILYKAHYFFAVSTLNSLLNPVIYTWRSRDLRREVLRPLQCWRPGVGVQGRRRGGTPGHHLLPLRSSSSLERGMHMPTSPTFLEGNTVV

SMILES | Emax [1] | hS1P1 cAMP pEC50 [1, 7] | Emax [2] | hS1P1 B-arrestin2 pEC50 [2, 8] | inhibition in vivo at 1 mg/kg [3] | Emax [4] | hS1P2 IP-one pEC50 [4] | Emax [5] | hS1P3 cAMP pEC50 [5] | Emax [6] | hS1P5 cAMP pEC50 [6] | EC50 ([1]; inhibition of cAMP production, S1P1 CHO-K1 cells, read-out: hS1P1 cAMP pEC50 (converted)) | EC50 ([2]; β-arrestin2 recruitment, S1P1 CHO-K1 cells, read-out: hS1P1 B-arrestin2 pEC50 (converted)) | inhibition in vivo at 3 mg/kg [3]
C=CCNc1ccc(-c2nc(-c3ccc(NS(C)(=O)=O)cc3)no2)cc1C#N [Compound 149, N-(4-(5-(4-(allylamino)-3-cyanophenyl)-1,2,4-oxadiazol-3-yl)phenyl)methanesulfonamide] | > 75% | >6.5 | > 75% | >5 | < 50% | < 50% | <5.0 | > 50% | >5.0 | > 50% | >5.0 |  |  | 
C=CCNc1ccc(-c2nc(-c3ccc4[nH]cnc4c3)no2)cc1C#N [Compound 177, 5-(3-(1H-benzo[d]imidazol-5-yl)-1,2,4-oxadiazol-5-yl)-2-(allylamino)benzonitrile] | > 75% | >6.5 | > 75% | >5 | > 50% | < 50% | <5.0 | > 50% | >5.0 | > 50% | >5.0 |  |  | 
CCC1(CC)CC(=O)c2cc(-c3nc(-c4ccc(C(=O)NC)cc4)no3)ccc2O1 [Compound 185, 4-(5-(2,2-diethyl-4-oxochroman-6-yl)-1,2,4-oxadiazol-3-yl)-N-methylbenzamide] | > 75% | >6.5 | > 75% | >5 | > 50% | < 50% | <5.0 | < 50% | <5.0 | > 50% | <5.0 |  |  | 
CCC1(CC)CC(=O)c2cc(-c3nc(-c4ccccc4Cl)no3)ccc2O1 [Compound 221, 6-(3-(2-chlorophenyl)-1,2,4-oxadiazol-5-yl)-2,2-diethylchroman-4-one] |  | >6.5 |  | >5 | < 50% |  | <5.0 |  | >5.0 |  | >5.0 |  |  | 
C=CCNc1ccc(-c2nc(-c3cn[nH]c3)no2)cc1C#N [Compound 252, 5-(3-(1H-pyrazol-4-yl)-1,2,4-oxadiazol-5-yl)-2-(allylamino)benzonitrile] |  |  |  |  | < 50% |  | >5.0 |  | >5.0 |  | >5.0 | < 0.316 µM | < 10 µM | 
CC(C)Nc1ccc(-c2nc(-c3ccc4c(c3)CCC(=O)N4)no2)cc1C#N [Compound 259, 2-(isopropylamino)-5-(3-(2-oxo-1,2,3,4-tetrahydroquinolin-6-yl)-1,2,4-oxadiazol-5-yl)benzonitrile] | > 75% | >6.5 | < 75% | >5 | < 50% | < 50% | <5.0 | < 50% | <5.0 | < 50% | <5.0 |  |  | 
CCC1(CC)CC(=O)c2cc(-c3nc(-c4ccc(NS(C)(=O)=O)cc4)no3)ccc2O1 [Compound 262, N-(4-(5-(2,2-diethyl-4-oxochroman-6-yl)-1,2,4-oxadiazol-3-yl)phenyl)methanesulfonamide] | > 75% | >6.5 | > 75% | >5 | > 50% | > 50% | <5.0 | < 50% | <5.0 | < 50% | <5.0 |  |  | > 50%
CCC1(CC)CC(=O)c2cc(-c3nc(-c4ccnc(O)c4)no3)ccc2O1 [Compound 263, 2,2-diethyl-6-[3-(2-hydroxy-4-pyridyl)-1,2,4-oxadiazol-5-yl]chroman-4-one] |  | >6.5 |  | >5 | > 50% |  | <5.0 |  | <5.0 |  | <5.0 |  |  | > 50%
C=CCNc1ccc(-c2nc(-c3ccc4sc(N)nc4c3)no2)cc1C#N [Compound 267, 2-(allylamino)-5-(3-(2-aminobenzo[d]thiazol-5-yl)-1,2,4-oxadiazol-5-yl)benzonitrile] |  | >6.5 |  | >5 | > 50% |  | <5.0 |  | <5.0 |  | <5.0 |  |  | 
COc1ccccc1-c1coc(-c2ccc3c(c2)nnn3C(C)C)n1 [Compound 277, 5-[4-(2-methoxyphenyl)-1,3-oxazol-2-yl]-1-(propan-2-yl)-1H-1,2,3-benzotriazole] | > 75% | >6.5 | > 75% | >5 | > 50% | > 50% | <5.0 | < 50% | <5.0 | < 50% | <5.0 |  |  | 
COc1ccccc1-c1nnc(-c2ccc3c(c2)oc(=O)n3C)o1 [Compound 406, 6-[5-(2-methoxyphenyl)-1,3,4-oxadiazol-2-yl]-3-methyl-2,3-dihydro-1,3-benzoxazol-2-one] |  | >6.5 |  | >5 |  |  | <5.0 |  | <5.0 |  | <5.0 |  |  | 
Cc1ccncc1-c1noc(-c2ccc3c(c2)nnn3C2CCC2)n1 [Compound 417, 1-cyclobutyl-5-[3-(4-methylpyridin-3-yl)-1,2,4-oxadiazol-5-yl]-1H-1,2,3-benzotriazole] |  | >6.5 |  | >5 |  |  | >5.0 |  | <5.0 |  | <5.0 |  |  | 
